Reference: patent US6900216B2, “Dihydroimidazo[2,1-b]thiazole and dihydro-5h-thiazolo[3,2-A]pyrimidines as antidepressant agents” (Knoll GmbH, priority 2000, dated 2005)
pKi: −log10 of the molar value.

The compounds below were run against T1, 5-HT1A receptors (Rattus norvegicus, UniProt P19327) (assay: 5-HT1A binding: inhibition of [3H]8-OH-DPAT binding to rat hippocampal membranes). Details: 10^−6 M test compound, single determination, [3H]8-OH-DPAT; read-out: 5-HT1A % displacement at 10^−6 M.
T1 construct: Hippocampal tissue from the brains of male Sprague-Dawley rats; from tissue; host or cells: rat hippocampal membranes
T1 sequence (P19327 1-422): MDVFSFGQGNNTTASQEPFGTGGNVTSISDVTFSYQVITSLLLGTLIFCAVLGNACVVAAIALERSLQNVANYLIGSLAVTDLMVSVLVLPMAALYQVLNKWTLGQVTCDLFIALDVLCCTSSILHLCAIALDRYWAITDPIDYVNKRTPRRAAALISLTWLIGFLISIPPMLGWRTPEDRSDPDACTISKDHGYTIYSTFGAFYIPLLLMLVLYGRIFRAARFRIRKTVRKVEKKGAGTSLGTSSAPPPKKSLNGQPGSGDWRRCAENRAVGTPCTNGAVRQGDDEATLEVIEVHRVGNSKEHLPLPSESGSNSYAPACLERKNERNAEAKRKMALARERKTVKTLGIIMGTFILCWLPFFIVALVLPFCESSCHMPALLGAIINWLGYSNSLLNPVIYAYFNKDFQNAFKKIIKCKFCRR
Protocol: Hippocampal tissue from the brains of male Sprague-Dawley rats (Charles River; weight range 150-250 g) was homogenised in ice-cold 50 mM Tris-HCl buffer (pH 7.7 when measured at 25° C., 1:40 w/v) and centrifuged at 40,000 g at 4° C. for 10 minutes. The pellet was rehomogenised in the same buffer, incubated at 37° C. for 10 minutes and centrifuged at 40,000 g at 4° C. for 10 minutes. The final pellet was resuspended in 50 mM Tris-HCl buffer (pH 7.7) containing 4 mM CaCl2, 0.1% L-ascorbic acid and 10 μM pargyline hydrochloride (equivalent to 6.25 mg wet weight of tissue/ml) and used immediately in the binding assay.
Membranes (400 μl; equivalent to 2.5 mg wet weight of tissue/tube) were incubated with 50 μl of [^3H]8-hydroxy-2-(dipropylamino)tetralin ([^3H]8-OH-DPAT) at a single concentration of 1 nM and 50 μl of distilled water (total binding) or 50 μl of test compound (at a single concentration of 10^−6 M or at 10 concentrations ranging from 10^−11-10^−3 M) or 50 μl of 5-HT (10 μM, non-specific binding) at 25° C. for 30 minutes. The incubation was terminated by rapid filtration under vacuum through Skatron 11734 filters using a Skatron Cell Harvester. Filters were washed with ice-cold 50 mM Tris-HCl buffer, pH 7.7 (at 25° C., wash setting 9,9,0). The scored filter paper discs were punched out into vials, scintillation fluid added and radioactivity determined by liquid scintillation counting.
For each of these tests measuring the ability of compounds of Formula I to displace standard ligands from 5-HT1A receptors and 5-hydroxytryptamine (5-HT) and noradrenaline (NA) reuptake sites and muscarinic receptors in vitro, the percentage displacement of specific binding of tritiated ligand by 10^−6 M test compound was calculated in the following way.
Firstly, specific binding of tritiated ligand in the absence (A) and presence (B) of test compound was determined:
In the absence of compound: A(dpm)=Total binding (dpm)−Non-specific binding (dpm) In the presence of compound (10^−6 M): B(dpm)=Binding at 10^−6M (dpm)−Non-specific binding (dpm)
The specific binding of tritiated ligand in the presence (B) of compound was then converted to a percentage of specific binding of tritiated ligand in the absence (A) of compound: % Specific binding at 10^−6 M=B(dpm)/A(dpm)×100
The percentage displacement of specific binding of tritiated ligand by the test compound (10^−6 M) was then obtained by subtraction of the percentage specific binding in the presence of compound from the percentage specific binding in the absence of compound, which is taken as the maximum binding and so equals 100%:
% Displacement at 10^−6 M=100−% Specific binding at 10^−6 M.
In some cases, displacement curves were then produced for compounds which displaced ≧50% of specific binding of the tritiated ligand at 10^−6 M using a range of concentrations of the compound. The Ki was then calculated by simultaneous fitting using equations derived from the Feldman equations by robust non-linear regression to data from three experiments simultaneously (De Lean et al., 1978; Munson and Rodbard, 1980; Feldman, 1992). Munson P J and Rodbard D. Ligand: a versatile computerised approach for characterisation of ligand binding systems. Anal Biochem 1980; 107: 220. Feldman HA. Mathematical theory of complex ligand binding systems at equilibrium: some methods for parameter fitting. Anal Biochem 1992: 48, 317. De Lean A, Munson P J and Rodbard D. Simultaneous analysis of families of sigmoidal curves: application to bioassay, radioligand assay, and physiological dose-response curves. Am J Physiol 1978: 235 (2), E97-E102.
The results obtained in the above tests for 5-HT1A binding and 5-HT and NA uptake and muscarinic binding for the final products of Examples 1-39 hereinafter are given in Table 1 below. Kis are in nM. % Figures are for % displacement at 10^−6 M for a single determination.
With OCC1=C(c2cc3ccccc3s2)N2CCN=C2S1 [Example 15, [3-(benzo[b]thiophen-2-yl)-5,6-dihydroimidazo[2,1-b]thiazol-2-yl]methanol] the inhibition at 1 µM was 97%.

Same assay, conditions: [3H]8-OH-DPAT 1 nM, rat hippocampal membranes; fit to data from three experiments
In the case of C1=C(c2cccc3sccc23)N2CCN=C2S1.Cl [Example 2, 3-(benzo[b]thiophen-4-yl)-5,6-dihydroimidazo[2,1-b]thiazole hydrochloride], the pKi was 7.07.
CCC1=C(c2ccc3sccc3c2)N2CCN=C2S1.O=C(O)/C=C/C(=O)O [Example 31, 3-(benzo[b]thiophen-5-yl)-2-ethyl-5,6-dihydroimidazo[2,1-b]thiazole fumarate] showed a pKi of 6.99.
With CSC1=C(c2cc3ccccc3s2)N2CCN=C2S1 [Example 19, 3-(benzo[b]thiophen-2-yl)-2-(methylthio)-5,6-dihydroimidazo[2,1-b]thiazole] the pKi was 6.87.
CSC1=C(c2cccc3sccc23)N2CCN=C2S1.O=C(O)/C=C/C(=O)O [Example 32, 3-(benzo[b]thiophen-4-yl)-2-(methylthio)-5,6-dihydroimidazo[2,1-b]thiazole fumarate] gave a pKi of 7.03.
Br.Oc1cccc2sc(C3=CSC4=NCCN34)cc12 [Example 12, 2-(5,6-dihydroimidazo[2,1-b]thiazol-3-yl)benzo[b]thiophen-4-ol hydrobromide] was tested, and the pKi was 7.28.
In the case of Br.CC1=C(c2ccc3ccsc3c2)N2CCN=C2S1 [Example 37, 3-(benzo[b]thiophen-6-yl)-2-methyl-5,6-dihydroimidazo[2,1-b]thiazole hydrobromide], the pKi was 8.68.

Same assay, conditions: read-out: 5-HT1A % displacement at 10^−6 M
With Br.Clc1cccc2sc(C3=CSC4=NCCN34)cc12 [Example 1, 3-(4-chlorobenzo[b]thiophen-2-yl)-5,6-dihydroimidazo[2,1-b]thiazole hydrobromide] the inhibition at 1 µM was 60%.
Cl.Fc1cccc2sc(C3=CSC4=NCCN34)cc12 [Example 5, 3-(4-fluorobenzo[b]thiophen-2-yl)-5,6-dihydroimidazo[2,1-b]thiazole hydrochloride] showed an inhibition at 1 µM of 55%.
Br.COc1cccc2cc(C3=C(C)SC4=NCCN43)sc12 [Example 26, 3-(7-methoxybenzo[b]thiophen-2-yl)-2-methyl-5,6-dihydroimidazo[2,1-b]thiazole hydrobromide] was tested, and the inhibition at 1 µM was 90%.
